Test results as given in patent US7560475B2, “Phenylacetic acid derivative, process for producing the same, and use” (Ono Pharmaceutical Co., Ltd., priority 2003, dated 2009).

Columns and labels:
7-weeks old male mice = assay: Lowering effect of blood cholesterol and blood lipid in mice loaded with high cholesterol diets; type: in vivo; settings: high cholesterol diet mice, plasma, vehicle administration group defined as 100%
Method: High cholesterol diets (CRF-1 solid pellet mixed of 5.5% peanut oil, 1.5% cholesterol, 0.5% cholic acid, Oriental Bio Service) are loaded to 7-weeks old male mice for six days and then the body weight of food-deprived […] are measured, the following various parameter levels are measured. The measurement items are LDL, HDL, TG level, NEFA, and TC level. Mice are divided into five per group based on TC level and the division was performed without bias in the average of other parameters. From the next day to six days in a row, the suspended solution of the compounds in vehicle (0.5% methylcellulose aqueous solution) are orally compellingly administered once daily and the loading of high cholesterol diets is continued. After the next day of termination of final administration (the 7th day of administration onset), plasma lipid (TG HDL, LDL, NEFA, TC level) is measured.
The relative activity of the compounds of the present invention was calculated under the condition that the value of vehicle administration group was defined as 100%. And then HDL cholesterol elevating effect and LDL cholesterol lowering effect of the compound prepared in Example 33 are shown in Table 2.

human PPAR δ = target: T1, human PPAR δ (Homo sapiens, UniProt Q03181); assay: Luciferase assay using human PPAR δ (Gal4-PPAR chimeric receptor reporter in CV-1 cells); type: cell-based; settings: relative to 30 μM carbacyclin defined as 1, 42 hours
T1 construct: expressed in transfected cells; host or cells: CV-1 cells
T1 sequence (Q03181 139-441): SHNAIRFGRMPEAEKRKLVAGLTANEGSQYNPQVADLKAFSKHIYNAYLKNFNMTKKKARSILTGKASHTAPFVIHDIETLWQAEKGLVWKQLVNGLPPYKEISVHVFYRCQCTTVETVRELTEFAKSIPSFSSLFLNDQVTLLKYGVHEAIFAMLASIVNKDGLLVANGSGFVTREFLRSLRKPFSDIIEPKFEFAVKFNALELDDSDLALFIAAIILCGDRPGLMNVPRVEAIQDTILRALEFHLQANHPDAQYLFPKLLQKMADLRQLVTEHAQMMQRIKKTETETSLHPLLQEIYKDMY

[1] = dose 3 mg/kg orally once daily for six days
[2] = dose 10 mg/kg orally once daily for six days
[3] = dose 30 mg/kg orally once daily for six days

Cc1sc(N2CCC(C(F)(F)F)CC2)nc1CCOc1cccc(CC(=O)O)c1F [Example 33, [2-fluoro-3-(2-{5-methyl-2-[4-(trifluoromethyl)piperidin-1-yl]-1,3-thiazol-4-yl}ethoxy)phenyl]acetic acid]
HDL cholesterol elevating effect (7-weeks old male mice; [1]): 150.0% | LDL cholesterol lowering effect (7-weeks old male mice; [1]): 82.5% | HDL cholesterol elevating effect (7-weeks old male mice; [2]): 162.7% | LDL cholesterol lowering effect (7-weeks old male mice; [2]): 75.7% | HDL cholesterol elevating effect (7-weeks old male mice; [3]): 157.3% | LDL cholesterol lowering effect (7-weeks old male mice; [3]): 72.3% | Fold increase of transcriptional activation (human PPAR δ; final concentration 0.1 μM): 0.47 | Fold increase of transcriptional activation (human PPAR δ; final concentration 0.3 μM): 1.08 | Fold increase of transcriptional activation (human PPAR δ; final concentration 1.0 μM): 1.23
